# Experiments:
# [1] = biological target: T1, B2 receptor (Homo sapiens, UniProt P30411); assay: PG subtype secretion (EIA) induced by Candesartan in HPVEC and HASMC; assay type: cell-based; details: for PGE2 (%) / PGF-2a (%): 10 μM Candesartan
# T1 construct: The cell strains used in the study were human primary vein endothelial cells (HPVEC) and human aortic smooth muscle cells (HASMC); endogenous in cells; host or cells: HPVEC and HASMC (human primary cells)
# T1 sequence (P30411 1-391): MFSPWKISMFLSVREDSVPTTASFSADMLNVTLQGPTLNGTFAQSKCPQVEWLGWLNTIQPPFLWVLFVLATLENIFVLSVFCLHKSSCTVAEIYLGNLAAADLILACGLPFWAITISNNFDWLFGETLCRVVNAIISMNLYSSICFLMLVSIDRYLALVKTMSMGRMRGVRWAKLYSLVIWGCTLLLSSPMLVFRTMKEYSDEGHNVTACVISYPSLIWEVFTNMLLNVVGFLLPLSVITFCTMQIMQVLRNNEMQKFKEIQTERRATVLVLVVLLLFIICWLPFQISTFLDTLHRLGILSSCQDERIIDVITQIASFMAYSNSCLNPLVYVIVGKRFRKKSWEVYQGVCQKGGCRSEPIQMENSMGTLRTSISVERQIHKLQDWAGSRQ
# Source text: These percentage values above were all calibrated with respect to bradykinin.
# [2] = biological target: T2, bradykinin (BK) B2 receptors (Homo sapiens, UniProt P30411); assay: PG secretion in cell supernatant by enzyme immunoassay (EIA), relative to 1 μM bradykinin; assay type: cell-based; details: for PG release (%) compared with BK-1 μM (100%): 1 h, 37° C.
# T2 construct: The cell strains used in the study were human primary vein endothelial cells (HPVEC) and human aortic smooth muscle cells (HASMC); endogenous in cells; host or cells: HPVEC and HASMC (human primary cells)
# T2 sequence (P30411 1-391): T1 sequence (P30411 1-391)
# Procedure: We studied angiotensin II receptor antagonists activating bradykinin (BK) B2 receptors to promote secretion of Prostaglandin. Losartan, candesartan, telmisartan were selected for the study described below, and bradykinin was used as control. Implantation Two cell lines were transferred into T-75 cell culture flask, and then the instructions of PG kit were strictly followed when cells have reached the appropriate density. Day 1 Cells were seeded in 24 well dishes with minimum medium and allowed to adhere overnight. Day 2 Cells were starved in the serum-free conditioned medium. […] The supernatant was collected after incubation for later use. Day 4 24 well dishes were washed and then dyed for 45-90 min, and then the OD value was measured for analysis. Therefore OD values of BK B2 receptor agonists were obtained and the EC50, EMAX were calculated. The cell strains used in the study were human primary vein endothelial cells (HPVEC) and human aortic smooth muscle cells (HASMC).
# In order to detect endogenous prostaglandin, enzyme immunoassay (EIA) was used to determine the amount of prostaglandin and subtypes thereof in the cell supernatant described above.
# [3] = biological target: T1, B2 receptor; assay: Inhibition of PG secretion by B2 receptor inhibitor HOE-140; assay type: cell-based; details: for PG synthesis blocked by 1 μM HOE-140: PG synthesis caused by 10 μM of the compound
# Procedure: The detailed protocol for the elucidation of inhibited PG secretion by B2 receptor inhibitor HOE-140 was shown as follows. Two different cell lines were transferred into T-75 cell culture flask, and then the instructions of PG kit were strictly followed when cells have reached the appropriate density. Day 1. Cells were seeded in 24 well dishes with minimum medium and allowed to adhere overnight. Day 2. Cells were starved in the serum-free conditioned medium. Day 3. […] Cells were incubated at 37° C. for 1 h. The supernatant was collected after incubation for later use. Day 4. 24 well dishes were washed and then dyed for 45-90 min, and then the quantitative analysis was carried out. Therefore OD values (420 nm) of BK B2 receptor agonists were obtained and the EC50, EMAX were calculated.
# Therefore we could conclude the angiotensin II type 1 receptor antagonists influence PG secretion via B2 receptor since HOE-140 acts as B2 receptor antagonist
# [4] = longest of all commercially available ARBs; cited from earlier work
# [5] = 10 μM, calibrated with respect to bradykinin
# [6] = HASMC, calibrated with respect to bradykinin
# [7] = HPVEC, calibrated with respect to bradykinin
Prostaglandin D secretion ([1]; 10 μM),"share of PG secretion that was Prostaglandin E2 [1, 5] [%]","share of PG secretion that was Prostaglandin F-2a [1, 5]","PGE2 (%) [1, 6] [%]","PGF-2a (%) [1, 6] [%]","PGE2 (%) [1, 7] [%]","PGF-2a (%) [1, 7] [%]",PG release (%) compared with BK-1 μM (100%) ([2]; 1 μM) [%],PG release (%) compared with BK-1 μM (100%) ([2]; 3 μM) [%],effect relative to the effect of 1 μM of bradykinin (PG secretion) ([2]; 10 μM) [%],PG release (%) compared with BK-1 μM (100%) ([2]; 10 μM) [%],effect relative to the effect of 1 μM of bradykinin (PG secretion) ([2]; 30 μM) [%],PG release (%) compared with BK-1 μM (100%) ([2]; 30 μM) [%],PG release (%) compared with BK-1 μM (100%) ([2]; 30 nm) [%],PG release (%) compared with BK-1 μM (100%) ([2]; 100 nm) [%],PG release (%) compared with BK-1 μM (100%) ([2]; 300 nm) [%],PG relaease (%) compared with BK-1 μM (100%) ([3]; 10 μM + 1 μM HOE-140) [%],"PG relaease (%) compared with BK-1 μM (100%) ([3]; 10 μM, without HOE-140) [%]",PG synthesis blocked by 1 μM HOE-140 [3] [%],SMILES,half-life [4]
no Prostaglandin D detected,30,roughly 6%,37.13 ± 9.85,6.21 ± 2.56,32.54 ± 6.93,5.47 ± 3.32,16.51 ± 2.02,26.91 ± 4.13,~50,46.19 ± 5.65,~90,86.83 ± 7.21,6.21 ± 2.3,11.27 ± 2.74,12.91 ± 3.08,6 ± 3.12,46.19 ± 5.65,85,"CCOc1nc2cccc(C(=O)O)c2n1Cc1ccc(-c2ccccc2-c2nn[nH]n2)cc1 [Candesartan, 2-ethoxy-1-({4-[2-(2H-1,2,3,4-tetrazol-5-yl)phenyl]phenyl}methyl)-1H-1,3-benzodiazole-7-carboxylic acid]",
,,,,,,,8.16 ± 2.43,12.06 ± 4.12,,23.18 ± 3.65,~60,58.17 ± 6.32,0.18 ± 0.74,2.96 ± 2.22,4.69 ± 1.21,5 ± 4.45,23.18 ± 3.65,80,"CCCCc1nc(Cl)c(CO)n1Cc1ccc(-c2ccccc2-c2nn[nH]n2)cc1 [Losartan, (2-butyl-4-chloro-1-{[2′-(1H-tetrazol-5-yl)biphenyl-4-yl]methyl}-1H-imidazol-5-yl)methanol]",
,,,,,,,9.01 ± 1.35,13.56 ± 1.56,,14.56 ± 2.42,~25,25.46 ± 3.48,4.48 ± 1.54,4.69 ± 1.78,6.46 ± 3.1,3 ± 2.03,14.56 ± 2.42,80,"CCCc1nc2c(C)cc(-c3nc4ccccc4n3C)cc2n1Cc1ccc(-c2ccccc2C(=O)O)cc1 [Telmisartan, 2-(4-{[4-methyl-6-(1-methyl-1H-1,3-benzodiazol-2-yl)-2-propyl-1H-1,3-benzodiazol-1-yl]methyl}phenyl)benzoic acid]",about 24 h

# From US20160081901A1, “COMPOSITIONS AND METHODS FOR HAIR GROWTH” (WUHAN OPTICS VALLEY BRIDGEBIOMED INTERNATIONAL CORPORATION, priority 2013, published 2016)
